Read-outs that look alike come from different tables or passages of the source.
Assays:
[1] = tested on: Pseudomonas putida ATCC 11172; test: Biodegradation of solvents (consumed as substrate); type: cell-based; conditions: Table 1; Yes/No
Procedure: (§1) Pseudomonas putida available under ATCC accession number 11172, an organism known to degrade phenol by the meta pathway (Bayly et al.^17) was used in this Example. The organism was maintained on medium previously described (Fujita et al.^11), containing 5 g/L glucose and 100 mg/L phenol as carbon sources. EDTA was also added to the medium at a 1:1 molar ratio with ferric chloride to prevent the formation of a precipitate. Cultures were grown in 125 mL Erlenmeyer flasks containing 50 mL of maintenance medium in a shaker bath at 30° C. The flasks were allowed to incubate for 36 hours prior to their use as inoculum for fermentation. A total of 160 mL of the cultured medium was centrifuged, the supernatant discarded and the cell fraction resuspended in the remaining 40 mL of medium. The 40 mL aliquot was then used to inoculate the fermentor for the batch and fed batch experiments.
The biodegradability of the solvents was assessed as part of the solvent selection process. 5 mL of each solvent was added to 125 mL Erlenmeyer flasks containing 50 mL of seeded maintenance medium containing 250 mg/L phenol but no glucose. Solvent was not added to one flask, which was used as a control. In addition, 5 mL of corn oil was added to one flask, to serve as a positive control. Flasks were placed on the shaker bath as above for 7 days. The cell density in each flask was measured every 24 hours. The net change in cell density was then compared to the change in cell density seen in the control and the positive control.

[2] = Determination of partition coefficients of phenol between solvent and medium buffer; type: physicochemical
Procedure: A stock solution of medium buffer containing 5 g/L of phenol was prepared, and 5 mL samples of the medium buffer were then contacted with 5 mL of solvent using the Mixxor™ contacting system. The contacted samples were then centrifuged, and the organic phase was aspirated and discarded. […] A red colour was developed in the samples, and the absorbance of the solution was measured relative to a blank using a Bausch and Lomb Spectronic 2000™ spectrophotometer. The partition coefficient for phenol in each organic-aqueous system was then be determined by mass balance. Any solvents that formed emulsions with the aqueous phase were eliminated from the solvent screening process, due to the difficulties associated with calculating partition coefficients for these systems.

[3] = tested on: Pseudomonas putida ATCC 11172
Procedure: The microorganism used for these experiments was Pseudomonas putida available under ATCC accession number 11172. The organism was maintained in liquid and solid culture, transferred weekly. The maintenance medium formulation used was as previously described (Fujita et al.^11), with 5 g/L glucose and 100 mg/L phenol provided as carbon sources. Cultures were grown in 125 mL flasks containing 50 mL of medium in a shaker bath at 30° C. for 36 hours prior to inoculation of the fermentor. A total of 160 mL of inoculum from 4 flasks was concentrated by centrifugation, the supernatant decanted and the cell fraction resuspended in the remaining 40 mL of medium to prepare the final inoculum.
(§2) Fermentation was carried out in a 2 L New Brunswick Scientific BioFlo reactor modified for aeration with a fritted glass tube. The fermentor was operated at 30° C., agitated at 200 rpm and aerated at 0.25 vvm, based on the aqueous phase volume. The pH was controlled at 6.8 using 2N KOH. The fermentor was heat sterilized with 1 L of medium (containing no carbon source) already in place. The sterilized medium was then inoculated, and 500 mL of the organic solvent, loaded with 4 g of phenol, was added, as depicted in the schematic diagram shown in FIG. 1. A control fermentor was also prepared in the same manner, but with a cell free aqueous phase, to test for possible volatilization of phenol due to air stripping.
Cell density was estimated by measuring the optical density of samples taken from the aqueous phase at 650 nm. Phenol concentrations in the aqueous phase were estimated using the 4-aminoantipyrine method (Der Yang et al.^12) and a Bausch and Lomb Spectronic 2000 spectrophotometer. The samples were centrifuged prior to analysis in order to remove the cell fraction. The concentration of phenol in the organic phase was measured by contacting a sample taken from the organic phase with medium buffer using a Mixxora contacting system. The resulting mixture was centrifuged, the organic phase aspirated, and the buffer analyzed using the 4-aminoantipyrine method, as mentioned above. The amount of phenol present in the organic phase was then calculated by mass balance using an […] partition coefficient.

[4] = tested on: Pseudomonas putida ATCC 11172; remark: listed apart in the source
Procedure: as §1
The fermentor was prepared as above, but with a second glass sparger added to improve aeration. A propeller was added to the stir shaft of the fermentation vessel, in an attempt to reduce foaming. The fermentation was allowed to progress normally, but when the phenol concentration in the organic phase reached 2 g/L, 250 ml of the organic phase was removed, and spiked with approximately 9 g of phenol. The organic sample was then returned to the reactor, bringing the overall concentration of phenol in the organic phase back to 20 g/L. This was done twice, at 72 hours and at 120 hours. Nutrient spikes (the standard carbon-free medium formulation dissolved in 50 mL of water, instead of 1 L) were also added at 96 hours and at 132 hours, to avoid nutrient depletion in the aqueous phase.
Samples were taken from the organic and aqueous phases every twelve hours throughout the fermentations. Samples were centrifuged prior to analysis to separate the cell fraction, aqueous phase and organic layer. Phenol concentrations in the aqueous phase were assayed using the 4-aminoantipyrine method as described above. The organic samples were contacted with medium buffer using the Mixxor™ contacting system. The resulting mixture was then centrifuged, and the organic phase aspirated off. Phenol levels in the buffer were then determined as above, and the experimentally determined partition coefficient was used to calculate the concentration of phenol present in the organic phase. Cell density was assessed as described above. Consumption of base was also monitored.

[5] = Procedure: as §2
The pH was controlled at 6.8 using 2N KOH.

[6] = tested on: Pseudomonas putida ATCC 11172; remark: listed apart in the source
Procedure: (§3) Samples were taken from the organic and aqueous phases every twelve hours throughout the fermentations. Samples were centrifuged prior to analysis to separate the cell fraction, aqueous phase and organic layer. […] The organic samples were contacted with medium buffer using the Mixxor™ contacting system. The resulting mixture was then centrifuged, and the organic phase aspirated off. Phenol levels in the buffer were then determined as above, and the experimentally determined partition coefficient was used to calculate the concentration of phenol present in the organic phase. Cell density was assessed as described above. Consumption of base was also monitored.

[7] = tested on: Pseudomonas putida ATCC 11172; remark: listed apart in the source
Procedure: To allow for complete biodegradation of the substrate, the carbon-free medium formulation was doubled in concentration, in order to provide adequate nutrients for the fermentation. The fermentor was initially aerated to 0.25 vvm and agitated at 200 rpm, but during the fermentation aeration was increased to 0.5 vvm, and agitation to 250 rpm, to increase the mass transfer of oxygen to the cells. A dissolved oxygen electrode was used to monitor the level of oxygen in the aqueous phase. The pH of the system was controlled at 6.8 using 1N KOH.
as §3

[8] = tested on: Pseudomonas putida; conditions: cited from earlier work
[9] = 28 g fed batch, initial 10 g of phenol

With `CCCCCCCCCCO` [1-decanol] as the molecule, how does the “Consumed as Substrate” value [1] read?
The value was “Yes”.

For `CCCCCCCCCO` [1-nonanol], which “Consumed as Substrate” value [1] is on record?
The value was “Yes”.

For `CCCCCCCCCCCO` [1-undecanol], which “Partition Coefficient” value [2] is on record?
The value was 20.8.

What about the “Consumed as Substrate” value [1] of the same molecule?
Its value is “Yes”.

With `CCCCCCCCC(C)O` (centres unmarked) [2-decanol] as the molecule, how does the “Partition Coefficient” value [2] read?
Its value is 22.6.

And the “Consumed as Substrate” value [1]?
Its value is “No”.

For `CCCCCCCCC(C)=O` [2-decanone], which “Consumed as Substrate” value [1] is on record?
The value was “No”.

With `CCCCCCCC(C)O` (centres unmarked) [2-nonanol] as the molecule, how does the “Partition Coefficient” value [2] read?
Its value is 28.3.

And the “Consumed as Substrate” value [1]?
The value was “No”.

Which “Consumed as Substrate” value [1] does the source give for `CCCCCCCCCC(C)=O` [2-undecanone] here?
Its value is “No”.

Which results are given for `Oc1ccccc1` [phenol]?
initial concentration of phenol in the aqueous phase ([3]; 4 g phenol in 500 mL 2-undecanone, 1 L aqueous): approximately 168 mg/L; time to consumption of phenol to exhaustion ([3]; 4 g phenol, 2-undecanone, batch): over 48 hours; initial lag phase ([3]; 4 g phenol, batch): 12 h; volumetric phenol consumption rate ([3]; based on aqueous phase volume, 4 g phenol, batch): approximately 80 mg/L-h; yield coefficient ([3]; cells in aqueous phase only, 4 g phenol): approximately 0.21 g cells produced/g phenol consumed; yield coefficient ([4]; 28 g fed batch system, cells in aqueous phase only): 0.12 g/g; exponential growth phase [4, 9]: 48 h; lag phase [4, 9]: 24 h; lag phase of cell growth for the spikes of phenol ([4]; fed batch mode): eliminates the lag phase; time to degrade 28 g of phenol ([4]; fed batch system): about 165 hours; volumetric consumption rate ([4]; fed batch system): 175 mg/L-h; time to consumption of the last 10 g of phenol to exhaustion ([4]; fed batch, time from start of fermentation): under 168 hours; loss of phenol to volatilization ([5]; cell free fermentor, 48 hours, Example 1): no loss of phenol to volatilization; loss of phenol due to air stripping ([5]; control (cell-free) fermentor, Example 2): no phenol was lost due to air stripping; yield coefficient ([6]; 4 g phenol batch, cells in aqueous phase only): 0.20 g cells/g phenol; initial concentration of phenol in the aqueous phase ([6]; 4 g phenol in organic phase): 168 mg/L; initial lag phase ([6]; 4 g phenol, batch): 12 h; yield coefficient ([7]; 10 g batch system, cells in aqueous phase only): 0.15 g/g; initial concentration of phenol in the aqueous phase ([7]; 10 g phenol in organic phase): approximately 420 mg/L; lag phase ([7]; 10 g phenol, batch): about 24 hours; volumetric phenol consumption rate ([7]; the batch system, based on aqueous phase volume): approximately 135 mg/L-h; typical yield coefficient on phenol ([8]; Hill et al., g cells/g phenol): 0.52 ± 0.08 g/g; yield coefficient ([8]; Hill et al., printed without unit in Example 1): 0.52+/-0.08; typical inhibitory value of phenol ([8]; Kotturi et al.): 500 mg/L; volumetric phenol consumption rate ([8]; highest literature value, batch system, Fujita et al.): 37.5 mg/L-h
